Measured values taken from paper PMC3436892, “Novel African Trypanocidal Agents: Membrane Rigidifying Peptides” (PLoS ONE, 2012).

Experiments:
Live BSF T. b. brucei [1] = settings: previously reported; cited from earlier work
Excerpt: Treatment of BSF African trypanosomes with SHP results in multiple physiological alterations. Addition of SHP-1 to BSF trypanosomes, which were subsequently immobilized in gelatin, decreases the fraction of laterally mobile surface exposed VSG (Fig. 2c). This effect may be directly due to increased membrane rigidity, or indirectly due to a decrease in the mobility of membrane spanning proteins and potential interactions with the VSG. Another physiological consequence, that may or may not be related to membrane rigidification, is SHP-induced changes in cell motility. Previously we reported that ...

[2] = Parallax analysis of tryptophan penetration depth; type: physicochemical; settings: 500 nM peptide, PBS, 37°C, 22 h
Procedure: The hydrocarbon penetration depth of tryptophans spaced throughout synthetic peptides corresponding to SHP-1 or SHP-3 (Table S1) was determined by parallax analysis with brominated phosphatidylcholine liposomes. Large unilamellar liposomes composed of egg phosphatidylcholine and 10 mol % 1-palmitoyl-2-(6,7-dibromo)stearoyl-sn-glycero-3-phosphocholine (shallow quencher) or 1-palmitoyl-2-(9,10-dibromo)stearoyl-sn-glycero-3-phosphocholine (deep quencher) were constructed by hydration of a thin dry lipid film with phosphate buffered saline. Resulting multilamellar liposomes were made unilameller via extrusion through polycarbonate filters with 0.1 µm pores. Peptides (500 nM) were incubated with 200 µg/ml liposomes in phosphate buffered saline at 37°C for 22 h. Tryptophan fluorescence at 357 nm was measured from at least triplicate trials in the PerkinElmer Life Sciences LS55 spectrofluorometer and an excitation wavelength of 280 nm for SHP-1 and 290 nm for SHP-2, 10 nm excitation and 9 nm emission slit widths. The distance of tryptophans from the bilayer center (ZCF) is calculated from the equation [12]: [drawing 1] Where LC1 is the distance from the center of the bilayer to the shallow quencher, in this case 10.8 Å for 6,7-dibromo-PC [25], F1 is the intensity of tryptophan in the presence of the shallow quencher and F2 is the tryptophan intensity in the presence of the deep quencher, C is the mole fraction of quencher divided by the area of individual phospholipid (70 Å^2), and L21 is the difference in the depth of the two quenchers (2.7 Å). The hydrocarbon insertion depth of tryptophans is then given by one half the bilayer thickness, 29 Å [25], minus ZCF.

[3] = system: Bloodstream developmental forms of T. congolense; assay: 2 h in vitro killing assay, T. congolense; type: cell-based, Trypanosoma congolense strain IL3000; settings: 37°C, 1×10^7 cells/mL, HMI 9 with 20 % bovine serum, hemocytometer, at concentrations similar to BSF T. brucei (Fig. 1b)
Procedure: (§1) Light microscopy based trypanosome killing assays were performed as previously described in detail, [10], [21], [22]. Metacyclic Trypanosoma brucei brucei strain STIB247 were obtained from dissection of the salivary glands of infected tsetse flies. Newly hatched Glossina morsitans morsitans (24–48 h post eclosion) were fed two defibrinated horse blood meals containing 2×10^6 mL^-1 trypanosomes on two separate days. Flies were then maintained at 25°C in 75 % relative humidity and fed maintenance blood meals three times per week. Following day 20–30, flies were harvested and salivary glands were dissected out and placed into HMI 9 media containing 10 % fetal bovine serum for 30 minutes. Metacyclic cells were expelled into the media by the residual peristalsis of the salivary glands. Cells were collected via centrifugation and maintained in HMI 9 media with 20 % fetal bovine serum at 37°C in 5 % CO2 until use. Killing assays were conducted with 1×10^4 cells/mL in HMI 9 media containing 10 % fetal bovine serum. Live cells were scored via hemocytometer after 2 h incubation. Trypanosoma vivax strain ILRAD V34 and Trypanosoma congolense strain IL3000 were grown from stabilites in donor ICR mouse (Harlan, United Kingdom). […] Cells were incubated at 37°C for 2 h and live cells were scored visually via hemocytometer. […]

Live BSF T. b. brucei [4] = assay: Trypanosome motility scoring by DIC microscopy; type: cell-based, Trypanosoma brucei brucei; settings: 40 µM SHP, 37°C, 1×10^7 cells/mL, HMI 9 with 10 % fetal bovine serum, DIC microscopy, at least duplicate (Fig. 2d)
Procedure: All images and videos were acquired with an Axio Observer Z1 equipped with an AxioCam MRm controlled by AxioVision 4.6 software. Videos were acquired with live cells at a density of 1×10^7 cells/mL in HMI 9 media with 10 % fetal bovine serum, incubated with 40 µM SHP at 37°C. Trypanosomes were visualized at magnification 63 × and videos were recorded with 100-ms acquisition times. The motility of BSF trypanosomes was scored directly or from video playback. Trypanosome motility was classified as normal, hyperactive or constricted as described previously. An example of a trypanosome scored as normal is shown in Movie S1. […] Data in figure 2D is shown as the average of at least duplicate trials with standard deviations.

[5] = system: Bloodstream developmental forms of T. vivax; assay: 2 h in vitro killing assay, T. vivax; type: cell-based, Trypanosoma vivax strain ILRAD V34; settings: 37°C, 1×10^7 cells/mL, HMI 9 with 20 % bovine serum, hemocytometer, at concentrations similar to BSF T. brucei (Fig. 1b)
Procedure: as §1

[6] = Circular dichroism spectroscopy; type: physicochemical
Procedure: Spectra were recorded with a Jasco J-710 spectropolarimeter in a 1 mm quartz cuvette. Measurements were performed with a final concentration of 15 µM SHP-1 added from a stock of ethanol-solubilized peptide (final ethanol concentration 7.5 %) in 10 mM K2PO4, 50 mM Na2PO4, pH 7.5. Lipid associated peptide spectra were recorded with the addition of 0.1 µm unilamellar egg phosphatidylcholine liposomes at a peptide to lipid ration of 0.3. Spectra were averaged from four scans and the appropriate buffer scans were subtracted.

In the case of “SDLGAVISLLLWGRQLFA [SHP-1, trypanocidal small hydrophobic peptide derived from an apolipoprotein, with characteristics of a secretory signal peptide]”, the “effect on motility of BSF trypanosomes” value (Live BSF T. b. brucei [1]) is listed as “initial hyperactivation followed by constricted motility and death”, the “distance of tryptophan at position 1 from the membrane interface” value ([2]; Trp-substituted variant W1, 200 µg/ml egg PC liposomes with 10 mol % 6,7- or 9,10-dibromo-PC, bilayer thickness 29 Å, at least triplicate) is listed as “approximately 1.1 Å” and the “distance of tryptophan at position 8 from the membrane interface” value ([2]; Trp-substituted variant W8, 200 µg/ml brominated egg PC liposomes) is listed as “approximately 7.8 Å”. For the same sequence, the “distance of tryptophan at position 18 from the membrane interface” value ([2]; Trp-substituted variant W18, 200 µg/ml brominated egg PC liposomes) was roughly 2.0 Å, the “distance of tryptophan at position 12 from the membrane interface” value ([2]; native tryptophan, 200 µg/ml brominated egg PC liposomes) was roughly 5.1 Å and the “F1/F2 ± S.D.” value ([2]; ratio of tryptophan fluorescence intensity (357 nm) with shallow (6,7-dibromo-PC, F1) and deep (9,10-dibromo-PC, F2) quencher, 200 µg/ml liposomes, at least triplicate) was 0.9676 ± 0.0560. The “susceptibility of BSF T. congolense to killing” value [3] was “susceptible to killing”, the “constriction of motility following hyperactivation” value (Live BSF T. b. brucei [4]) was “subsequent constriction” and the hyperactivation of motility (Live BSF T. b. brucei [4]) was “hyperactivation”. The “susceptibility of BSF T. vivax to killing” value [5] was “susceptible to killing”, the “secondary structure in the presence of lipid (CD)” value ([6]; 15 µM peptide with 0.1 µm unilamellar egg phosphatidylcholine liposomes, peptide to lipid ratio 0.3, pH 7.5, peak 193 nm, minimum 208 nm) was “α-helical structure” and the “secondary structure in solution (CD)” value ([6]; 15 µM peptide, 7.5 % ethanol, 10 mM K2PO4, 50 mM Na2PO4, pH 7.5, peak 195 nm, crossover about 205 nm, minimum 218 nm) was “β-sheet conformation”.
